What all share (format): cell-based
Test [1] deals with U20S cells. The test is described as follows: Colony forming assay in U20S cells depleted of or overexpressing TEAD4. On the procedure: (§1) In colony forming assay, indicated cells were plated at 5,000 cells density in 2 ml of DMEM medium. TEAD4 depletion was performed by reverse transfection with 20 nM of Dharmacon smart pool NTsiRNA and TEAD4 siRNA in 2.5 ul of lipofectamine mixed with 25% of OPTIMEM. After 18 hrs of transfection, cells were either DMSO treated or treated with indicated compounds at different doses. After 48 hrs of the treatment cells were recovered in a fresh medium for 4 days. At the end of the experiment cells were Glutaraldehyde fixed and stained in crystal violet solution for 2 hrs. After washing, plates were scanned for image processing.
In line with proliferation assay we performed colony forming assay in U20S cells either depleted or overexpressing TEAD4. Cells stably expressing GFP and GFP fused TEAD4 were also included in this assay.

Test [2] deals with T1, GFP-TEAD4 (Homo sapiens, UniProt Q15561).
T1 construct: expressed in transfected cells
T1 sequence (Q15561 whole entry): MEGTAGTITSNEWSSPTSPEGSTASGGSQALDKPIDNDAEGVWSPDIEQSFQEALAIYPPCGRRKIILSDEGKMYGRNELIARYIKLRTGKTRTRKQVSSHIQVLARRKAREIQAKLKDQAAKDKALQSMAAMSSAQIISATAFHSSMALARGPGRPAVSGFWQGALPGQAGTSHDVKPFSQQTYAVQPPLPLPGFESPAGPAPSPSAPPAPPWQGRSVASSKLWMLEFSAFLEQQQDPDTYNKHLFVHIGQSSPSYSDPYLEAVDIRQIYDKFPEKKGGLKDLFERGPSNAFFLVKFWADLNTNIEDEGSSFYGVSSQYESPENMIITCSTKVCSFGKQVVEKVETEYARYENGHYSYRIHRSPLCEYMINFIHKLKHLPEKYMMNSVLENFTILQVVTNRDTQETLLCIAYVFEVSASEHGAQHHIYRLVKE
Description: TEAD4 localization imaging in U20S cells stably expressing GFP-TEAD4. The settings on record: 10 μM, 18 hrs. On the procedure:
Methods: U20S cells stably expressing GFP-TEAD4 were seeded at 50,000 cell densities onto glass cover slips in six well plates. Next day, cells were either DMSO treated or treated with indicated compounds at 10 μM concentrations. After 18 hrs of treatment cells were washed and fixed in 4% formaldehyde for 20 minutes. Blocking was done in 3% BSA dissolved in PBST for 1 hour. Cell were incubated with indicated antibodies for overnight in a cold room. Next day, after washing 3× in PBST samples were incubated with respective secondary antibodies for 45 minutes at room temperature. After washing nuclear staining was done with DAPI for 10 minutes. Coverslips were added onto glass slides with the help of mounting medium. After drying, cells were imaged at 63× objective and processed with ZEN x64 blue software.
Result: In DMSO treated control samples we observed very nuclear localized TEAD4 (green) signal, strongly imposed to the DAPI signal. Nuclear and cytoplasmic YAP and TAZ was observed either in DMSO or in compound treated cells.

Test [3] deals with A549 cells. Description: Cell proliferation assay (Cell Titre Glow) in A549 cells with TEAD4 depletion. Conditions: TEAD4 depleted A549 cells, compared with NTsi treated cells. On the procedure:
Method: Indicated cells were plated at 3000 cells/80 μl in each well. TEAD4 depletion was performed by reverse transfection with 20 nM of Dharmacon smart pool NTsiRNA and TEAD4 siRNA in 0.25 ul of lipofectamine mixed with 25% of OPTIMEM. After 18 hrs of transfection, cells were recovered for 24 hrs in fresh DMEM medium. Cells were treated with indicated compounds at different doses. After 48 hrs of dosing cells were recovered in fresh medium for 3 days. Cell Titre Glow (CTG) assay was used.
U20S cells stably expressing GFP fused TEAD4 and GFP alone were treated with different doses of CPD10 and analysed for cellular proliferation. […] Further we used cell lines expressing higher level of TEAD4 and performed depletion experiment followed by comparative sensitivity analysis.

Test [4] has as its system TEAD transcriptional target genes. Description: RT-PCR profiling of YAP-TEAD transcriptional target genes in NCI-H226 cells. The settings on record: 24 hrs. How it is done: Relative quantification of immunoblot signals were quantified with IMAGE J software. Actively growing cells were added with indicated concentrations of CPD10 and CPD13 and cells were collected after 24 hrs. RNA was extracted and cDNA was synthesized. Indicated primer pairs were used for RT-PCR. Relative gene expression was determined by using GAPDH amplification.

Test [5] deals with NCI-H226 mesothelioma cells. The test is described as follows: Colony forming assay in NCI-H226 mesothelioma cells. How it is done:
as §1
Colony forming assay was essentially performed as described in previous section.

The source of these data is US20250197355A1, “TEAD Targeting Compounds and Methods Thereof” (Agency for Science, Technology and Research, priority 2022, published 2025).

On to `C=CS(=O)(=O)CCC(=O)Nc1nn(-c2ccccc2)cc1C` [CPD10], for which the colony forming sensitivity result in test [1] (U20S cells overexpressing GFP fused TEAD4, in comparison to GFP alone) is “very high sensitivity”; in test [1] (U20S cells treated with control siRNA, unlike TEAD4 depleted cells, 2.5 μM), “very high sensitivity”; in test [5], “strongly sensitizes”. In test [1] (U20S cells, control siRNA vs TEAD4 siRNA), the “TEAD4 dependence of cellular sensitivity (siRNA depletion, colony forming)” value is listed as “TEAD4 dependent”. The “cytoplasmic localization of the TEAD4 protein” value in test [2] is given as “induction of cytoplasmic localization”. For the same compound, the “nuclear TEAD4 presence” value in test [2] is “didn't diminish”. Moreover, the cellular proliferation sensitivity entry in test [3] is “lower sensitivity”. In test [4], the “TEAD transcriptional target genes expression (RT-PCR)” value was “repression”.
